Results: US20200405719A1, “CANCER TREATMENT USING COMBINATION OF NEUTROPHIL MODULATOR WITH MODULATOR OF IMMUNE CHECKPOINT” (APOLLOMICS INC., priority 2018, published 2020)
Like-named read-outs stand apart in the source and are kept apart here.

What was measured:
[1] = 3 mg/kg IV on Day 1 and Day 15 of 28-day cycle; relapsed and refractory solid tumor subjects; cited from earlier work
MC38 tumor cells = assay: MC-38 syngeneic colon cancer model, tumor growth and tolerability; type: in vivo
Description: The inventors undertook a combination study of APL-101 and an anti-PD-1 antibody to evaluate the safety and efficacy of the combination. In the MC-38 colon cancer model in syngeneic mice, four groups, five animals per group received either vehicle (water at 20 mg/kg orally, once a day), APL-101 (10 mg/kg orally, once a day), anti-PD-1 (10 mg/kg intraperitoneal injection, twice a week), or APL-101 plus anti-PD-1. In the vehicle group as well as the APL-101 group, animals were dosed daily on Days 1-15 whereas in the single agent anti-PD-1 group, doses were administered on Days 1, 4, 8, 11, and 15. In the combination arm of APL-101 and anti-PD-1, APL-101 was administered on Days 5-15 (4-day delay) while the anti-PD-1 was dosed on Days 1, 4, 8, 11, and 15.
(§1) Animals: female C57BL/6 mice, age 6-8 weeks and of body weight 18-20 g, were provided by Shanghai Lingchang Bio-Technology Co. Ltd.
APL-101 were provided by CBT pharmaceuticals (now Apollomics, Inc.). Anti-PD 1 antibodies were supplied by BioXcell.
Cell culture: The MC38 tumor cells were thawed and maintained in vitro as a monolayer culture in DMEM medium supplemented with 10% heat inactivated fetal bovine serum at 37° C. in an atmosphere of 5% CO2 in air. […] The cells growing in an exponential growth phase were harvested and counted for tumor inoculation. […]
Group assignment: Before grouping and treatment, all animals were weighed and the tumor volumes were measured using a caliper. […]
(§2) Observation and data collection: After tumor cells inoculation, the animals were checked daily for morbidity and mortality. During routine monitoring, the animals were checked for any effects of tumor growth and treatments on normal behavior such as mobility, visual estimation of food and water consumption, body weight gain/loss (body weights were measured twice per week after randomization), eye/hair matting and any other abnormal effect. Death and observed clinical signs were recorded in the comment of datasheet for each animal in detail. […] (Tumor weight was measured at the end of study). […]

H22 tumor cells = assay: H22 syngeneic liver cancer model, tumor growth and tolerability; type: in vivo
Description: The inventors undertook a combination study of APL-101 and an anti-PD-1 antibody to evaluate the safety and efficacy of the combination. In the H22 liver cancer model in syngeneic mice, four groups, ten animals per group received either vehicle (PVP K30 at 20 mg/kg orally, once a day for three weeks), APL-101 (10 mg/kg orally, once a day for three weeks), anti-PD-1 (10 mg/kg intraperitoneal injection, twice a week for three weeks), or APL-101 plus anti-PD-1.
as §1
APL-101 were provided by CBT pharmaceuticals (now Apollomics, Inc.). […]
Cell culture: The H22 tumor cell line were maintained in vitro in RPMI-1640 medium supplemented with 10% fetal bovine serum at 37° C. in an atmosphere of 5% CO2 in air. […] The cells growing in an exponential growth phase were harvested and counted for tumor inoculation. […]
as §2, with “on” for “on normal”, “mobility,” for “mobility, visual estimation of”, “weekly” for “per week”, “abnormalities.” for “abnormal effect. Death and observed clinical signs were recorded in the comment of datasheet for each animal in detail.”, “were” for “was”

[2] = 150 mg every 12 hours; 300 mg total daily dose; cited from earlier work
RENCA tumor cells = assay: Syngeneic Renca kidney cancer model, tumor growth and tolerability; type: in vivo
Source text: The inventors undertook a combination study of APL-101 and an anti-PD-1 antibody to evaluate the safety and efficacy of the combination. […]
as §1
APL-101 were provided by CBT pharmaceuticals (Apollomics, Inc.). Anti-PD 1 antibodies were supplied by BioXcell. PVP K30 were supplied by Fluka Analytical.
Cell culture: The Renca tumor cell line was maintained in vitro in DMEM medium supplemented with 10% fetal bovine serum at 37° C. in an atmosphere of 5% CO2 in air. The tumor cells were routinely subcultured twice weekly. The cells growing in an exponential growth phase were harvested and counted for tumor inoculation. […]
Observation and data collection: After tumor cells inoculation, the animals were checked daily for morbidity and mortality. During routine monitoring, the animals were checked for any effects of tumor growth and treatments on behavior such as mobility, food and water consumption, body weight gain/loss (body weights were measured twice weekly after randomization), eye/hair matting and any other abnormalities. Mortality and observed clinical signs were recorded for individual animals in detail. […] (Tumor weight were measured at the end of study). […]

| Molecule | dose deemed safe by Safety Review Committee [1] | Mean percent tumor growth (MC38 tumor cells; MC 38 syngeneic model, APL-101 10 mg/kg qd, anti-PD-1 Ab 10 mg/kg biw) [%] | body weight of treated mice (MC38 tumor cells; MC-38 model, FIG. 1C, alone or in combination) | mean percent tumor growth inhibition (MC38 tumor cells; MC-38 syngeneic mice, APL-101 PO 10 mg/kg QD, anti-PD-1 IP 10 mg/kg BIW, combination x2 weeks, single agents x3 weeks) [%] | Mean percent tumor growth (H22 tumor cells; H22 syngeneic liver cancer model, APL-101 10 mg/kg QD x3 weeks, anti-PD-1 IP 10 mg/kg BIW x3 weeks) [%] | body weight of treated mice (H22 tumor cells; H-22 model, FIG. 2C, alone or in combination) | dose deemed safe by Safety Review Committee [2] | body weight of treated mice (RENCA tumor cells; RENCA model, FIG. 3C, alone or in combination) | Mean percent tumor growth (RENCA tumor cells; syngeneic Renca kidney cancer model, APL-101 10 mg/kg QD x3 weeks, anti-PD-1 IP 10 mg/kg BIW x3 weeks) [%] |
| --- | --- | --- | --- | --- | --- | --- | --- | --- | --- |
| APL-501: anti-PD-1 antibody, previously named CBT-501, see WO2016/014688 | safe |  |  |  |  |  |  |  |  |
| Cn1cc2cc(C(F)(F)c3nnc4ccc(-c5cnn(C6CC6)c5)nn34)c(F)cc2n1 [APL-101] |  | 35.61 | did not affect the body weight | 33.6 | 108.73 | did not affect the body weight | safe | did not affect the body weight | 77 |
